Columns and labels:
[1] = per 100 g of water; cited from earlier work
[2] = Stability test 1 (storage test), effective chlorine retention rate
Description: In the case where the solid bleaching agent is a chlorine bleaching agent, an effective chlorine content (in terms of Cl2) in the solid bleaching agent-containing material can be calculated by Expression 3 by using an iodine titration method. That is, iodine which is liberated by the reaction of active chlorine and potassium iodide is titrated with sodium thiosulfate solution, and the effective chlorine content is calculated by the following Expression 3.
(§1) A stability of the solid bleaching agent-containing material having a coating layer thus obtained can be evaluated on the basis of how much an effective chlorine retention rate or effective oxygen retention rate after a storage test under certain conditions is improved before and after coating. The effective chlorine retention rate (%) is defined by the following Expression 9. […] Similarly, in the case where the solid bleaching agent is an oxygen bleaching agent, the stability of the solid bleaching agent is defined by the effective oxygen retention rate (%). […] Effective chlorine or effective oxygen retention rate (%)=R1×100/R2 (Expression 9)
Distilled water was added thereto to be about 100 ml, and about 1 g potassium iodide and about 5 ml of a 50% by mass acetic acid aqueous solution were further added and stirred for about 5 minutes. The liberated iodine was titrated with a 0.1 N sodium thiosulfate aqueous solution. After a yellow color of the solution became thin, approximately 1 ml of an aqueous solution of starch (10 g/L) was added as an indicator and the titration was continued until a blue color of the generated iodine-starch disappeared. The effective chlorine content (%) was determined from the titration amount of the sodium thiosulfate aqueous solution.
(§2) At this time, room temperature was 20° C. and relative humidity was 40%.

[3] = Stability test 1 (storage test), effective oxygen retention rate; details: uncoated solid bleaching agent (before coating)
Description: Even in the case of the oxygen solid bleaching agent, an effective oxygen content (in terms of O2) in the solid bleaching agent-containing material can be calculated by using an iodine titration method. That is, iodine which is liberated by the reaction of active oxygen and potassium iodide is titrated with a sodium thiosulfate solution, and the effective oxygen content is calculated by Expression 4. In order to accelerate the reaction between active oxygen and potassium iodide, a small amount of ammonium molybdate aqueous solution adjusted to 1% by mass may be added. […] Effective oxygen content (%)=a×f×0.08000/b (Expression 4)
as §1, §2

[4] = Stability test 2 (long-term storage test); format: physicochemical; details: in pasty detergent composition
Description: In a stainless steel beaker were charged 5 g of distilled water and 3 g of potassium carbonate, and the potassium carbonate was dissolved. […] . The pasty detergent composition heated to 60° C. was accurately weighed within a range of from 2.5 to 3.5 g, a mass thereof was recorded up to 3 decimal places, and added so as to be superimposed on the solid bleaching agent-containing material or sodium dichloroisocyanurate, to thereby prepare detergent compositions containing the solid bleaching agent-containing material or the solid bleaching agent. […] One month later, the entire amount of the detergent composition containing the solid bleaching agent-containing material or the solid bleaching agent in the cup was dissolved in about 100 ml of distilled water, and the effective chlorine retention rate was evaluated from the effective chlorine content in the same manner as in the case of the stability test 1.
. […] The case where the effective chlorine retention rate was less than 5% was evaluated as failed which is denoted by B, because an effect of improving stability was hardly recognized. The case where the effective chlorine retention rate was 5% or more was evaluated as pass which is denoted by A, because an effect of improving stability was recognized. […]

[5] = Stability test 3 (abrasion test); format: physicochemical; details: uncoated; storage 40° C., 75% RH, 3 months
Description: In order to evaluate a stability in the case where a physical impact was applied to the solid bleaching agent-containing materials having a coating layer prepared in Examples 1, 25, 28, 31, 35, 36, 37, 38, and 39, an abrasion test was carried out by using a tablet abrasion tester (manufactured by Toyama Sangyo Co., Ltd.). This tablet abrasion tester is composed of a plastic drum container having an inner diameter of about 286 mm and a depth of about 38 mm, and an electric part rotating the drum container in a vertical direction. Inside the drum container, a partition plate is provided so that a test sample in the container is lifted up to about 157 mm in height and falls each time when the drum container makes one rotation. Such a tablet abrasion tester is readily available. […]
The case where the effective chlorine retention rate was less than 5% was evaluated as failed which is denoted by B because an effect of improving stability was hardly recognized. The case where the effective chlorine retention rate was 5% or more and less than 10% was evaluated as pass which is denoted by A, because an effect of improving stability was recognized. The case where the effective chlorine retention rate was 10% or more was evaluated as particularly excellent among passes, which is denoted by S. The results were as shown in Table 27.

[6] = uncoated solid bleaching agent (before coating)

| Compound | solubility with respect to water of 100 g [1] [g] | Stability test 1: before coating, effective chlorine retention rate (%) [2, 6] [%] | Stability test 1: before coating, effective oxygen retention rate (%) [3] [%] | Stability test 2: effective chlorine retention rate ([4]; 1 month, 40° C., 75% RH) [%] | Stability test 2: before coating, effective chlorine retention rate (%) ([4]; uncoated, after 1 month) | Stability test 3: before coating, effective chlorine retention rate (%) [5] [%] | Stability test 1: before coating, effective chlorine retention rate (%) ([2]; unprocessed solid bleaching agent mixed with detergent components and 3 ml tap water at 60° C., 18 hours at room temperature) |
| --- | --- | --- | --- | --- | --- | --- | --- |
| O=c1n(Cl)c(=O)n(Cl)c(=O)n1Cl [trichloroisocyanuric acid, Trichloroisocyanuric acid] | 1.2 | 30 |  |  |  |  |  |
| O=C([O-])[O-].O=C([O-])[O-].OO.OO.OO.[Na+].[Na+].[Na+].[Na+] [Sodium percarbonate] |  |  | 25 |  |  |  |  |
| O=c1nc([O-])n(Cl)c(=O)n1Cl.[Na+] [Sodium dichloroisocyanurate] |  | 12 |  | 0 | 0 | 0 | 12 |

Source: patent US11078450B2, “Material containing solid bleaching agent, and detergent composition” (SHIKOKU CHEMICALS CORPORATION, priority 2016, dated 2021)
